# Values of other authors, collected in patent US20200275650A1, “NOVEL POLYMER COATED CHLO[…]” (priority 2017, published 2020).
# Details: technical chlorothalonil; well documented
smiles,measurement,value
"N#Cc1c(Cl)c(Cl)c(Cl)c(C#N)c1Cl [technical chlorothalonil, chlorothalonil]",Median Lethal Concentration (acute inhalation toxicity),0.1 mg/L
